As a reminder, the EC50 is the concentration at which the effect is half-maximal.

Where only a bound is given, the exact number is not on record here.

These results are taken from patent US10112907B2, “Substituted indazoles for treating tendon and/or ligament injuries” (NOVARTIS AG, priority 2016, dated 2018).

The test system of the first test is Scleraxis (Scx) gene transcriptional activation in TT-D6 Scx-luciferase (ScxL) cell line. The test is described as follows: SCX-LUC in vitro assay (Scx-luciferase reporter). It counts as cell-based. The conditions noted are these: Mus musculus, 96 h; Table 3; four days; read-out: Scx-Luc (EC50 μM). On the technique in general: In a reporter assay the amount or activity of a reporter protein is the signal.
As to `Cc1cc(S(=O)(=O)N[C@H]2CCC[C@]2(C)O)ccc1-c1ccc2[nH]nc(N)c2c1C` [Example 58, 4-(3-amino-4-methyl-1H-indazol-5-yl)-N-((1S,2S)-2-hydroxy-2-methylcyclopentyl)-3-methylbenzenesulfonamide], the EC50 amounted to 1.33 µM.

Regarding `Cc1cc(S(=O)(=O)N2CC(C#N)C2)ccc1-c1ccc2[nH]nc(N)c2c1C` [Example 22, 1-((4-(3-amino-4-methyl-1H-indazol-5-yl)-3-methylphenyl)sulfonyl)azetidine-3-carbonitrile], the concentration giving a half-maximal response (EC50) was determined as 0.879 µM.

Turning to `Nc1n[nH]c2ccc(-c3ccc(S(=O)(=O)NC4CC(F)(F)C4)cc3Cl)c(Cl)c12` [Example 67, 4-(3-amino-4-chloro-1H-indazol-5-yl)-3-chloro-N-(3,3-difluorocyclobutyl)benzenesulfonamide], the EC50 came out at 0.535 µM.

With `Cc1cc(S(=O)(=O)N2CCC(O)(C(F)(F)F)C2)ccc1-c1ccc2[nH]nc(N)c2c1C` (stereo not shown) [Example 62, 1-((4-(3-amino-4-methyl-1H-indazol-5-yl)-3-methylphenyl)sulfonyl)-3-(trifluoromethyl)pyrrolidin-3-ol], the 50% effective concentration (EC50) was 0.63 µM.

Turning to `Cc1cc(S(=O)(=O)N2CC(F)(F)C[C@@H]2CO)ccc1-c1ccc2[nH]nc(N)c2c1C` [Example 88, (R)-(1-((4-(3-amino-4-methyl-1H-indazol-5-yl)-3-methylphenyl)sulfonyl)-4,4-difluoropyrrolidin-2-yl)methanol], the EC50 is 0.22 µM.

Consider `Cc1cc(S(=O)(=O)N2CCC(F)(F)CC2)ccc1-c1ccc2[nH]nc(N)c2c1C` [Example 80, 5-(4-((4,4-difluoropiperidin-1-yl)sulfonyl)-2-methylphenyl)-4-methyl-1H-indazol-3-amine], for which the EC50 was determined as 2.53 µM.

Take `Cc1cc(S(=O)(=O)N2CCC[C@H]2C(C)O)ccc1-c1ccc2[nH]nc(N)c2c1C` (stereo partly drawn) [Example 60, 1-((S)-1-((4-(3-amino-4-methyl-1H-indazol-5-yl)-3-methylphenyl)sulfonyl)pyrrolidin-2-yl)ethan-1-ol]: the EC50 is 1.61 µM.

Take `Cc1cc(S(=O)(=O)N[C@H]2CC[C@@H](C#N)CC2)ccc1-c1ccc2[nH]nc(N)c2c1C` [Example 27, 4-(3-amino-4-methyl-1H-indazol-5-yl)-N-((1s,4s)-4-cyanocyclohexyl)-3-methylbenzenesulfonamide]: the half-maximal effective concentration (EC50) came out at 1.35 µM.

With `Cc1cc(S(=O)(=O)NC2CC(F)(F)C2)ccc1-c1ccc2[nH]nc(N)c2c1C` [Example 24, 4-(3-amino-4-methyl-1H-indazol-5-yl)-N-(3,3-difluorocyclobutyl)-3-methylbenzenesulfonamide], the EC50 is 0.366 µM.

As for `Cc1cc(S(=O)(=O)N2C[C@H](F)C[C@H]2CO)ccc1-c1ccc2[nH]nc(N)c2c1C` [Example 87, ((2S,4R)-1-((4-(3-amino-4-methyl-1H-indazol-5-yl)-3-methylphenyl)sulfonyl)-4-fluoropyrrolidin-2-yl)methanol], the EC50 was determined as 0.288 µM.

As to `Cc1cc(S(=O)(=O)N[C@@H]2CCC[C@@H](C#N)C2)ccc1-c1ccc2[nH]nc(N)c2c1C` [Example 26, 4-(3-amino-4-methyl-1H-indazol-5-yl)-N-((1R,3R)-3-cyanocyclohexyl)-3-methylbenzenesulfonamide], the EC50 worked out at 0.745 µM.

For the compound `COc1c(-c2ccc(S(=O)(=O)N[C@@H]3CCC[C@@H]3O)cc2Cl)ccc2[nH]nc(N)c12` [Example 74], the EC50 was determined as 0.286 µM.

In the case of `Cc1cc(S(=O)(=O)N[C@H]2C[C@@H](O)C2)ccc1-c1ccc2[nH]nc(N)c2c1Cl` [Example 30, 4-(3-amino-4-chloro-1H-indazol-5-yl)-N-((1s,3s)-3-hydroxycyclobutyl)-3-methylbenzenesulfonamide], the 50% effective concentration (EC50) was determined as 0.752 µM.

Turning to `COc1c(-c2ccc(S(=O)(=O)N3CC(F)(F)C[C@H]3CO)cc2F)ccc2[nH]nc(N)c12` [Example 41, (S)-(1-((4-(3-amino-4-methoxy-1H-indazol-5-yl)-3-fluorophenyl)sulfonyl)-4,4-difluoropyrrolidin-2-yl)methanol], the EC50 worked out at 1.33 µM.

Turning to `Cc1cc(S(=O)(=O)NC2CC(O)(C(F)(F)F)C2)ccc1-c1ccc2[nH]nc(N)c2c1F` (stereo not shown) [Example 71, 4-(3-amino-4-fluoro-1H-indazol-5-yl)-N-((1s,3s)-3-hydroxy-3-(trifluoromethyl)cyclobutyl)-3-methylbenzenesulfonamide], the concentration giving a half-maximal response (EC50) is 0.108 µM.

With `Cc1cc(S(=O)(=O)N2CCCC(F)(F)C2)ccc1-c1ccc2[nH]nc(N)c2c1C` [Example 79, 5-(4-((3,3-difluoropiperidin-1-yl)sulfonyl)-2-methylphenyl)-4-methyl-1H-indazol-3-amine], the concentration for a half-maximal effect (EC50) was determined as 1.52 µM.

Consider `Cc1c(-c2ccc(S(=O)(=O)N3CCC(O)C3)cc2F)ccc2[nH]nc(N)c12` (stereo not shown) [Example 3, 1-((4-(3-amino-4-methyl-1H-indazol-5-yl)-3-fluorophenyl)sulfonyl)pyrrolidin-3-ol], for which the EC50 is 2.83 µM.

Take `Cc1cc(-c2ccc3[nH]nc(N)c3c2C)ccc1S(=O)(=O)N1CC(F)(F)C[C@H]1CO` [Example 91, (S)-(1-((4-(3-amino-4-methyl-1H-indazol-5-yl)-2-methylphenyl)sulfonyl)-4,4-difluoropyrrolidin-2-yl)methanol]: the EC50 turned out to be 2.91 µM.

With `COc1c(-c2ccc(S(=O)(=O)N3CC(F)(F)C[C@H]3CO)cc2Cl)ccc2[nH]nc(N)c12` [Example 86, (S)-(1-((4-(3-amino-4-methoxy-1H-indazol-5-yl)-3-chlorophenyl)sulfonyl)-4,4-difluoropyrrolidin-2-yl)methanol], the EC50 came out at 0.731 µM.

Consider `Nc1n[nH]c2ccc(-c3ccc(S(=O)(=O)NC4CC(O)(C(F)(F)F)C4)cc3Cl)c(F)c12` (stereo not shown) [Example 72, 4-(3-amino-4-fluoro-1H-indazol-5-yl)-3-chloro-N-((1s,3s)-3-hydroxy-3-(trifluoromethyl)cyclobutyl)benzenesulfonamide], for which the concentration giving a half-maximal response (EC50) is 0.177 µM.

`Cc1c(-c2ccc(S(=O)(=O)NC3CC(F)(F)C3)cc2Cl)ccc2[nH]nc(N)c12` [Example 68, 4-(3-amino-4-methyl-1H-indazol-5-yl)-3-chloro-N-(3,3-difluorocyclobutyl)benzenesulfonamide]: the 50% effective concentration (EC50) worked out at 1.86 µM.

On to `Cc1cc(S(=O)(=O)NC2CCCC(O)C2)ccc1-c1ccc2[nH]nc(N)c2c1C` (stereo not shown) [Example 25, 4-(3-amino-4-methyl-1H-indazol-5-yl)-N-(3-hydroxycyclohexyl)-3-methylbenzenesulfonamide], for which the concentration for a half-maximal effect (EC50) came to 0.606 µM.

Take `Nc1n[nH]c2ccc(-c3ccc(S(=O)(=O)N4CC(F)(F)C[C@H]4CO)cc3Cl)c(Cl)c12` [Example 53, (S)-(1-((4-(3-amino-4-chloro-1H-indazol-5-yl)-3-chlorophenyl)sulfonyl)-4,4-difluoropyrrolidin-2-yl)methanol]: the 50% effective concentration (EC50) stood at 0.74 µM.

For the compound `Cc1cc(S(=O)(=O)N[C@H]2CCC[C@H]2O)ccc1-c1ccc2[nH]nc(N)c2c1C` [Example 48, 4-(3-amino-4-methyl-1H-indazol-5-yl)-N-((1S,2R)-2-hydroxycyclopentyl)-3-methylbenzenesulfonamide], the EC50 amounted to 0.854 µM.

Take `Cc1cc(S(=O)(=O)N2CCC(F)(F)C2)ccc1-c1ccc2[nH]nc(N)c2c1C` [Example 77, 5-(4-((3,3-difluoropyrrolidin-1-yl)sulfonyl)-2-methylphenyl)-4-methyl-1H-indazol-3-amine]: the EC50 turned out to be 0.692 µM.

With `COc1c(-c2ccc(S(=O)(=O)N3CC(F)(F)C[C@H]3CO)cc2C)ccc2[nH]nc(N)c12` [Example 85, (S)-(1-((4-(3-amino-4-methoxy-1H-indazol-5-yl)-3-methylphenyl)sulfonyl)-4,4-difluoropyrrolidin-2-yl)methanol], the EC50 was 1.79 µM.

Consider `Cc1cc(S(=O)(=O)N[C@]2(C)C[C@H](O)C2)ccc1-c1ccc2[nH]nc(N)c2c1C` [Example 36, 4-(3-amino-4-methyl-1H-indazol-5-yl)-N-((1s,3s)-3-hydroxy-1-methylcyclobutyl)-3-methylbenzenesulfonamide], for which the EC50 stood at 0.806 µM.

For the compound `Cc1cc(S(=O)(=O)N[C@@H]2CC[C@H](O)C2)ccc1-c1ccc2[nH]nc(N)c2c1C` [Example 35, 4-(3-amino-4-methyl-1H-indazol-5-yl)-N-((1R,3S)-3-hydroxycyclopentyl)-3-methylbenzenesulfonamide], the concentration giving a half-maximal response (EC50) is 1.52 µM.

On to `Cc1c(-c2c(F)cc(S(=O)(=O)N3CC(F)(F)C[C@H]3CO)cc2F)ccc2[nH]nc(N)c12` [Example 89, (S)-(1-((4-(3-amino-4-methyl-1H-indazol-5-yl)-3,5-difluorophenyl)sulfonyl)-4,4-difluoropyrrolidin-2-yl)methanol], for which the 50% effective concentration (EC50) stood at 0.554 µM.

As for `Nc1n[nH]c2ccc(-c3ccc(S(=O)(=O)N4CC(F)(F)C[C@H]4CO)cc3F)c(F)c12` [Example 61, (S)-(1-((4-(3-amino-4-fluoro-1H-indazol-5-yl)-3-fluorophenyl)sulfonyl)-4,4-difluoropyrrolidin-2-yl)methanol], the EC50 stood at 1.5 µM.

Regarding `Cc1cc(S(=O)(=O)N2CCC(C#N)CC2)ccc1-c1ccc2[nH]nc(N)c2c1C` [Example 23, 1-((4-(3-amino-4-methyl-1H-indazol-5-yl)-3-methylphenyl)sulfonyl)piperidine-4-carbonitrile], the EC50 was 1.85 µM.

With `Cc1cc(S(=O)(=O)N[C@@H]2CCCC[C@@H]2O)ccc1-c1ccc2[nH]nc(N)c2c1C` [Example 17, 4-(3-amino-4-methyl-1H-indazol-5-yl)-N-((1R,2S)-2-hydroxycyclohexyl)-3-methylbenzenesulfonamide], the EC50 was 4.8 µM.

Consider `Nc1n[nH]c2ccc(-c3ccc(S(=O)(=O)N4CC[C@@H](O)C4)cc3Cl)c(Cl)c12` [Example 8, (R)-1-((4-(3-amino-4-chloro-1H-indazol-5-yl)-3-chlorophenyl)sulfonyl)pyrrolidin-3-ol], for which the 50% effective concentration (EC50) came to 3.6 µM.

The test is the same for the next values; noted with them: Mus musculus; assays described above (Scx-Luc and ex vivo); read-out: EC50 in the assays described above.
With `Cc1cc(S(=O)(=O)N2C[C@H](O)[C@@H](F)C2)ccc1-c1ccc2[nH]nc(N)c2c1C` [(3S,4S)-1-((4-(3-amino-4-methyl-1H-indazol-5-yl)-3-methylphenyl)sulfonyl)-4-fluoropyrrolidin-3-ol], the EC50 was greater than 10 µM.
